Data set [1] is described as follows: Cytotoxicity in Vero cells without virus infection. In kind it is cell-based. To be noted: Vero cells in the absence of virus, 72 hours at 37°C, 50% growth inhibition, read-out: TD₅₀. The method, then: (§1) The in vitro antiviral activity of BU-4628V was assessed against the herpes simplex virus type 1 (HSV-1) using the KOS strain. The assay was done according to the reported protocol of C. McLaren et al. in Antiviral Research, 3, 223-234, (1986) with minor modification. Briefly, 50 µl of Eagle's MEM medium containing BU-4628V and then 200 µl of the Vero cell suspension (2 X 10⁴ cells/200 µl) were added to a well of a 96-well microtiter plate. To the well, 50µl of medium containing approximately 30 times of the 50% tissue culture infectious dose (50% TCID) of virus was added. In a parallel experiment, the same set of cells without virus infection was prepared, which was for the determination of cytotoxicity of the sample. After 72 hours incubation at 37°C, the inhibition degree of virus-induced cytopathic effect and cytotoxicity by the sample were determined, respectively. The ID₅₀ is expressed as the concentration of a compound showing 50% growth inhibition of the cytopathic effect and the TD₅₀ as the concentration of a compound showing 50% growth inhibition of the cells in the absence of virus. Acyclovir was used as the reference compound for anti-HSV activity in the assay.

Data set [2] can be described thus: Cytotoxicity in CEM-SS cells (XTT assay). In kind it is cell-based. To be noted: human, concentration yielding 50% of viable cells of untreated control, read-out: cytotoxicity IC₅₀. Background: Formazan colour is commonly taken as a measure of viable cells.
Description: (§2) The antiviral effect is expressed as the inhibitory concentration of a compound which reduces the number of viruses of the infected culture to 50% of that of the drug - untreated, control culture (IC₅₀). The cytotoxicity is expressed as the concentration of a compound which yields 50% of the number of viable cells of the untreated control cultures (IC₅₀).
Data set [3] has as its system CEM-SS cells. As to the kind of experiment: Cytotoxicity in CEM-SS cells (XTT assay). In kind it is cell-based. To be noted: result in words.
Description: as §2
Data set [4] has as its system HIV-2 CBL-20. As to the kind of experiment: Anti-HIV activity, XTT assay in CEM-SS cells. In kind it is cell-based, human immunodeficiency virus. To be noted: HIV-2 CBL-20 strain, read-out: IC₅₀.
Description: The antiviral effect is expressed as the inhibitory concentration of a compound which reduces the number of viruses of the infected culture to 50% of that of the drug - untreated, control culture (IC₅₀).
Data set [5] in a line: Solubility in solvents. In kind it is physicochemical. The text has this: The antiviral antibiotic BU-4628V was isolated as a white amorphous powder.
Data set [6] relates to HIV-1 IIIb. As to the kind of experiment: Anti-HIV activity, XTT assay in CEM-SS cells. The conditions noted are these: HIV-1 IIIb strain, read-out: IC₅₀. In kind it is cell-based, human immunodeficiency virus.
Description: as §2
Data set [7] concerns S. typhi 901. The data set is classed as cell-based. To be noted: 901, 18 h, pH 7.
The test system of data set [8] is HIV-1 RF. As to the kind of experiment: Anti-HIV activity, XTT assay in CEM-SS cells. In kind it is cell-based, human immunodeficiency virus. The conditions noted are these: HIV-1 RF strain, read-out: IC₅₀.
Description: as §2
Data set [9] deals with herpes simplex virus type 1 (HSV-1). As to the kind of experiment: Anti-HSV activity, inhibition of virus-induced cytopathic effect in Vero cells. The data set is classed as cell-based. The conditions noted are these: HSV-1 KOS strain, 72 hours at 37°C, 50% inhibition of cytopathic effect. The method, then: as §1
Background: Cytopathic effects are the visible damage that an infection or toxin causes in cultured cells.

Data set [10] has as its system Vero cell. As to the kind of experiment: Cytotoxicity in Vero cells without virus infection. The conditions noted are these: Vero cells in the absence of virus, 72 hours at 37°C; 50% growth inhibition. The data set is classed as cell-based. The method, then: as §1
Data set [11] deals with human immunodeficiency virus. As to the kind of experiment: Anti-HIV activity, XTT assay in CEM-SS cells (strain not stated). In kind it is cell-based. The conditions noted are these: Human immunodeficiency virus 1, read-out: IC₅₀.
The test system of data set [12] is CEM-SS cells.
Description: as §2

Where two headings read alike, the source gives them in different places. Positions of bridges follow the written chain, without caps; N, C: chain ends. Residues, ends and D or L forms follow the SMILES beside them.

The results in this text go back to patent EP0603030A2, “Antiviral antibiotic BU-4628V and preparation thereof” (Bristol-Myers Squibb Company, priority 1992, dated 1994).

As to `CC[C@H](C)[C@@H]1NC(=O)CNC(=O)[C@H](CC(C)C)NC(=O)[C@@H]2CSSC[C@@H]3NC(=O)CNC(=O)[C@H](C)NC(=O)[C@H](Cc4ccccc4)NC(=O)[C@H](CC(=O)N2)NC(=O)[C@H](CC(N)=O)NC(=O)[C@H](CSSC[C@@H](C(=O)N[C@@H](Cc2ccccc2)C(=O)N[C@@H](Cc2c[nH]c4ccccc24)C(=O)O)NC(=O)[C@H](C(C)C)NC(=O)[C@H]([C@@H](C)CC)NC(=O)[C@H](C)NC(=O)[C@H](Cc2ccc(O)cc2)NC(=O)CNC3=O)NC(=O)[C@H](CO)NC(=O)CNC1=O` [BU-4628V] (CLGIGSCNDFAGCGYAIVCFW-OH; disulfide 1-13, 7-19; lactam N-9; C-terminus assumed), in data set [1], the CC50 at 72 h is > 100 µg/mL. In addition, in data set [2], the CC50 lay in the range of 26000 to 46000 nM. The cytotoxicity entry in data set [3] was “very weak cytotoxicity”. In addition, the results for the IC50 in data set [4], in data set [6] and in data set [8] were 320 nM, 920 nM and 140 nM, respectively. Moreover, the solubility result in [5] (in alkaline water) is given as “slightly soluble”; in data set [5] (in benzene), “insoluble”; in data set [5] (in chloroform) it was “insoluble”; in [5] (in dimethyl sulfoxide), “soluble”; in [5] (in dimethylformamide), “soluble”; in data set [5] (in ethanol) it was “soluble”. Also, the solubility entry in data set [5] (in ethyl acetate) is listed as “insoluble”; in data set [5] (in methanol) it was “soluble”; in data set [5] (in n-hexane), “insoluble”; in data set [5] (in petroleum ether), “insoluble”; in data set [5] (in water) it was “insoluble”. Besides, in [7], the MIC (usually the lowest concentration that inhibits growth of the organism) was >100 µg/mL. The ID₅₀ in data set [9] was 27 µg/mL.
In the case of `Nc1nc2c(ncn2COCCO)c(=O)[nH]1` [Acyclovir], in data set [10], the TD₅₀ is >100 µg/mL. In data set [9], the ID₅₀ amounted to 0.23 µg/mL.
With `O=c1[nH]cnc2c1ncn2[C@H]1CC[C@@H](CO)O1` [ddI, 2',3'-Dideoxyinosine], the IC50 in data set [11] was 1000 to 2000 nM. The cytotoxicity result in data set [12] was “very weak cytotoxicity”.
